Assays:
[1] = system: HIV-1-infected Hu-HSC mice; assay: SECH treatment of HIV-1-infected Hu-HSC mice (HIV-1 by RT-PCR, rebound after withdrawal); assay type: in vivo; settings: JQ1 25 mg/kg b.w. included in SECH
Protocol: Raltegravir and BMS-663068 (20 mg/kg b.w.) were included as the ART regimen daily. Mice in the control group received ART only daily.
Quantification of HIV-1 mRNA and DNA. HIV-1 mRNA was measured by RT-PCR similar to the described protocols. […] The reaction was carried out by iTaq Universal Probes Supermix (Bio-Rad) with a QuantStudio 5 Real-Time PCR System and analyzed with the QuantStudio Design and Analysis Software (Applied Biosystem). Cycle threshold (Ct) values were calibrated using standard curve generated with the standard samples with known amounts of viral copies.
Spleen cells were isolated and red blood cells were lysed with ammonium chloride lysing buffer (0.15 M NH4Cl, 10 mM KHCO3, 0.1 mM EDTA). Bone marrow cells were collected from femur and tibia. […]
Generation of humanized mice for HIV-1 infection and cure studies. […] Three months later, reconstitution of human immune cells in mouse peripheral blood was determined by flow cytometry. […]
Raltegravir and BMS-663068 (20 mg/kg b.w.) alone were also administered on the alternate days. […] During treatments, mice were monitored daily for body weight, food consumption and mobilities. […]
Peripheral blood was collected at different intervals to detect HIV-1 mRNA by RT-PCR. […] Virus clearance was determined in the spleen, bone marrow by RT-PCR, TZA assay and p24 intracellular staining.

[2] = system: CMT latently infected with HIV-1; assay: HIV-1 latency reversal in latently infected central memory T cells (p24 staining, HIV-1 mRNA RT-PCR); assay type: cell-based, human; settings: for number of HIV-1 p24-producing T cells after latency reversal: latently infected CMT stimulated with IDB, SAR405 2 μM or CQ 10 μM
Source text: Flow cytometry. The following antibodies from Biolegend were used for flow cytometry: Pacific Blue-anti-mouse CD45 (1:100, 103126, clone 30-F11,) APC-anti-human CD45 (1:100, 304012, clone HI30), Pacific Blue-anti-human CD19 (1:100, 302232, clone HIB19), PE-anti-human CD4 (1:100, 317414, clone OKT4), APC/Fire-750-anti-human CD8 (1:100, 34474, clone SK1), FITC-anti-human CD56 (1:100, 392413, clone QA17A16), Pacific Blue-anti-human CD19 (1:100, 302232, clone HIB19), Pacific Blue-anti-human CD3 (1:100, 300329, clone HIT3a), PE/Cy7-anti-HLA-HLA-DR, DP, DQ (1:100, 361708, clone Tü139), PerCP/Cy5.5-anti-human CD11b (1:100, 301327, clone ICRF44), APC/Fire-750-anti-human CD163 (1:100, 333633, clone GHI/61), PE-anti-human CD123 (1:100, 306005, clone 6H6), Alexa Fluor 488 anti-human CD11c (1:100, 301618, clone 3.9), PerCP/Cy5.5-anti-human CD3 (1:100, 300328, clone HIT3a), PerCP/Cy5.5 anti-human CD123 (1:100, 306016, clone 6H6), FITC-anti-mouse CD45 (1:100, 103108, clone 30-F11), PE/Cy7 anti-human CD197 (CCR7) (1:100, 353226, clone G043H7), PE-anti-human CD45R0 (1:100, 304244, clone UCHL1), FITC-anti-human CD45RA (1:100, 304148, clone HI100) and Alexa Fluor 488-anti-CD68 (1:30, 333812, clone Y1/82A), PerCP/Cy5.5-anti-human CD19 (1:100, 302230, clone HIB19), PE-anti-human CD27 (1:100, 356406, clone M-T271) and Pacific Blue-anti-human IgD (1:100, 348224, clone IA6-2). PE-anti-human CD3 (1:100, 556612, clone SP34) and V50-anti-human CD4 (1:100, 560345, clone RPA-T4) were from BD Biosciences. The cells stained with indicated antibodies were analyzed using a BD LSR II flow cytometer (BD Biosciences). To detect HIV-1 p24, spleen cells from Hu-HSC mice were stimulated with 5 μg/ml PHA (Sigma) and 6 ng/ml IL-2 (Biolegend). The cells were stained for T cell markers, followed by fixation and permeabilization using the Cytofix/Cytoperm buffer (BD Bioscience) and intracellular staining with PE-conjugated anti-p24 (1:30, 6604667, clone KC57, Beckman Coulter). The cells were analyzed by flow cytometry using a BD LSR II flow cytometer (BD Bioscience) and FlowJo software (version 10.5.3, BD Bioscience).
T cell isolation and infection with HIV-1. Peripheral blood mononuclear cells (PBMCs) of anonymous healthy donors from the Gulf Coast Blood Center were used to purify CD4^+ T cells with anti-CD4 MACS beads (Miltenyi Biotec). CD3^+CD4^+CD45RA^+CD45RO^−CCR7^+ naïve T cells, CD3^+CD4^+CD45RA^−CD45RO^+CCR7+ central memory T cells (CMT) and CD3^+CD4^+CD45RA^−CD45RO^+CCR7^− effector memory T cells (EMT) were sorted using a BD FACSAria flow cytometer (BD Bioscience). Naive CD4^+ T cells were stimulated with 5 μg/ml PHA and 6 ng/ml IL-2 in RPMI complete medium for 2 days to generate activated CD4^+ T cells. Sorted T cell subsets or activated T cells were infected with HIV-1 CXCR4-tropic NL4-3 or CCRS-tropic AD8 (both virus clones were obtained from the NIH AIDS Reagent Program) at the indicated MOI for 2 h. The cells were washed with PBS and cultured in RPMI complete medium containing 30 nM CCL19 (Biolegend) and 0.3 ng/ml IL-2 (Biolegend) and for 4 days to establish latent HIV infection as described.
Naïve T cells, activated T cells, CMT or EMT with or without infection with HIV-1 (NL4-3, 1 MOI) were cultured for 4 days in the presence of 30 nM CCL19 and 0.3 ng/ml IL-2 for 4 days to establish latent HIV infection. The cells with or without HIV-1 infections were stimulated with 0.1 μM IDB (Ingenol-3,20-dibenzonate, ENZO Life Sciences) in the presence of 0.2 μM ABT-263 (Adooq Bioscience), 2 μM SAR405 (MedChemExpress) or 10 μM chloroquine (CQ, Sigma) as indicated for 48 h. The cells were then incubated with 1 μM FITC-DEVD-FMK (Biovision), followed by staining with APC-Annexin V (Biolegend) and intracellular staining with PE-anti-HIV p24. The cells were analyzed by flow cytometry. The percentage of cell death was calculated by the loss of live cells negative for annexin V and DEVD staining by comparing treated and untreated groups: (untreated—treated)/untreated x 100%. […]

[3] = system: splenocytes of HIV-1-infected Hu-HSC mice; assay: PHA stimulation of splenocytes from Hu-HSC mice 10 days after HIV-1 infection; assay type: cell-based; settings: PHA 24 h
Protocol: FIGS. 11A-11C show analyses of Hu-HSC mice by flow cytometry. (FIG. 11A) Flow cytometry analyses of immune cells in the peripheral blood of Hu-HSC mice. NK, nature killer cells; DC, dendritic cells; M1, M1 macrophages; M2, M2 macrophages. (FIG. 11B) Spleen cells were isolated from Hu-HSC mice (n=4) 10 days post HIV-1 infection and cultured with or without PHA for 24 h. Culture media were collected for HIV-1 mRNA determination by RT-PCR. Data are presented as mean ±SD. PHA vs. control, **p=0.0088 (unpaired two-tailed t test). (FIG. 11C) Spleen cells treated in (b) were stained for CD4, followed by intracellular staining of HIV-1 p24 and flow cytometry analysis. […] Data are presented as mean ±SD. PHA vs. control, **p=0.0003 (unpaired two-tailed t test).
Flow cytometry. […] The cells stained with indicated antibodies were analyzed using a BD LSR II flow cytometer (BD Biosciences). […] The cells were analyzed by flow cytometry using a BD LSR II flow cytometer (BD Bioscience) and FlowJo software (version 10.5.3, BD Bioscience).

[4] = system: HIV-1-infected cells and uninfected bystander T cells; assay: Mixed culture of HIV-1-infected and CellTrace Violet-labeled uninfected T cells; settings: alone or together, 0.2 μM BMS-626529 present, 48 h
Protocol: To determine the specificity in the killing of HIV-1 infected cells, uninfected CD4 cells were labeled with CellTrace Violet dye (ThermoFisher Scientific) and mixed with HIV-1-infected cells at the ratio of 1:1. The cells were resuspended in RIPMI complete medium containing 0.2 μM BMS-626529, with 0.1 μM IDB, 0.2 μM ABT-263 and 2 μM SAR405 as indicated for 48 h. The cells were incubated with 1 μM FITC-DEVD-FMK, followed by staining with APC-Annexin and analyses by flow cytometry.

HIV-1-infected T cells = assay: Annexin V / DEVD-FITC / p24 cell death assay in T cells with or without HIV-1 infection; assay type: cell-based, human; settings: for IDB-induced killing of T cells latently infected by HIV-1: added to 0.1 μM IDB, SAR405 2 μM or ABT-263 0.2 μM; for IDB-induced cell death in HIV-1-infected CMT: autophagy inhibitor added to 100 nM IDB, 24 h
Protocol: Naïve T cells, activated T cells, CMT or EMT with or without infection with HIV-1 (NL4-3, 1 MOI) were cultured for 4 days in the presence of 30 nM CCL19 and 0.3 ng/ml IL-2 for 4 days to establish latent HIV infection. […] The cells were then incubated with 1 μM FITC-DEVD-FMK (Biovision), followed by staining with APC-Annexin V (Biolegend) and intracellular staining with PE-anti-HIV p24. The cells were analyzed by flow cytometry. The percentage of cell death was calculated by the loss of live cells negative for annexin V and DEVD staining by comparing treated and untreated groups: (untreated—treated)/untreated x 100%.

Compound | killing of HIV-1-infected cells in mixed culture [4] | killing of uninfected bystander cells in mixed culture [4] | number of HIV-1 p24-producing T cells after latency reversal [2] | IDB-induced killing of T cells latently infected by HIV-1 (HIV-1-infected T cells; 48 h) | IDB-induced cell death in HIV-1-infected CMT (HIV-1-infected T cells) | other results
Cc1sc2c(c1C)C(c1ccc(Cl)cc1)=N[C@@H](CC(=O)OC(C)(C)C)c1nnc(C)n1-2 [JQ1] |  |  |  |  |  | HIV-1 reactivation and clearance on inclusion of JQ1 in SECH [1]: further increased HIV-1 reactivation and clearance
phytohemagglutinin [PHA] |  |  |  |  |  | latency reversal of HIV-1 shown by induction of p24 expression ([2]; CMT, HIV-1 NL4-3 0.1 MOI, 4 days latency): led to latency reversal of HIV-1; latency reversal observed by expression of HIV-1 mRNA after stimulation ([2]; latently infected cells, pol RT-PCR): Latency reversal was also observed; expression of HIV-1 mRNA in splenocytes [3]: induced the expression of HIV-1 mRNA; production of Gag p24 in CD4+ T cells [3]: production of Gag p24
C[C@@H]1COCCN1c1cc(=O)n2c(n1)N(Cc1cncc(Cl)c1)[C@H](C(F)(F)F)CC2 [SAR405] | killed HIV-1-infected cells | resistant | decreased the number of HIV-1 p24-producing T cells | increased IDB-induced killing | promoted | induction of HIV-1 p24 expression by IDB-induced latency reversal ([2]; CMT infected with HIV-1 AD8 at 1 MOI): inhibited
CC1(C)CCC(c2ccc(Cl)cc2)=C(CN2CCN(c3ccc(C(=O)NS(=O)(=O)c4ccc(N[C@H](CCN5CCOCC5)CSc5ccccc5)c(S(=O)(=O)C(F)(F)F)c4)cc3)CC2)C1 [ABT-263, navitoclax] | killed HIV-1-infected cells | resistant |  | increased IDB-mediated cell death |  | loss of viable HIV-1 p24+ cells in IDB-stimulated HIV-1-infected cells (HIV-1-infected T cells; ABT-263 0.2 μM with IDB, 48 h): significantly increased
CCN(CC)CCCC(C)Nc1ccnc2cc(Cl)ccc12 (centres unmarked) [CQ, Chloroquine] |  |  | reduced the number of HIV-1 p24-producing T cells |  | promoted | 

— patent publication US20230011398A1, “COMBINATION THERAPY APPROACH TO ELIMINATE HIV INFECTIONS” (priority 2019, published 2023)
